Where “and” joins values, the source holds several entries; their conditions need not be identical. Identical values can stand only once. Calls of active or inactive are those of the source. No cut-off for these calls is given here.
Legend:
Mus musculus [1] = experiment: Anticonvulsant activity in Kunming mouse assessed as reduction in Sc3-MP-induced clonic seizure rate at 300 mg/kg, ip administered 0.5 hrs before Sc3-MP stimulation relative to control; assay type: functional; set-up: scale not given: the % may be the effect or the level left
Mus musculus [2] = experiment: Anticonvulsant activity in Kunming mouse assessed as reduction in Sc3-MP-induced tonic seizure rate at 300 mg/kg, ip administered 0.5 hrs before Sc3-MP stimulation relative to control; assay type: functional; set-up: scale not given: the % may be the effect or the level left
Mus musculus [3] = experiment: Anticonvulsant activity in Kunming mouse assessed as MES-induced hind limb extension at 100 mg/kg, ip administered 0. 5 to 2 hrs before MES stimulation; assay type: functional, organism-based
[4] = Neurotoxicity against Kunming mouse assessed as time remained in rod at 100 mg/kg, ip administered 0.5 to 2 hrs by rotarod test; assay type: toxicity, organism-based; conditions: in vivo
Mus musculus [5] = experiment: Anticonvulsant activity in Kunming mouse assessed as MES-induced hind limb extension at 50 mg/kg, ip administered 0.5 to 4 hrs before MES stimulation relative to control; assay type: functional
Mus musculus [6] = experiment: Anticonvulsant activity in Kunming mouse assessed as reduction in ScPTZ-induced seizure at 100 mg/kg, ip administered 0.25 to 2 hrs before ScPTZ stimulation relative to control; assay type: functional; set-up: scale not given: the % may be the effect or the level left
Mus musculus [7] = experiment: Anticonvulsant activity in Kunming mouse assessed as reduction in ScPTZ-induced seizure at 100 mg/kg, ip administered 0.25 and 1 hrs before ScPTZ stimulation relative to control; assay type: functional; set-up: scale not given: the % may be the effect or the level left
Mus musculus [8] = experiment: Anticonvulsant activity in Kunming mouse assessed as reduction in ScPTZ-induced clonic seizure at 300 mg/kg, ip administered 0.5 hrs before ScPTZ stimulation relative to control; assay type: functional; set-up: scale not given: the % may be the effect or the level left
Mus musculus [9] = experiment: Anticonvulsant activity in Kunming mouse assessed as reduction in ScPTZ-induced tonic seizure rate at 300 mg/kg, ip administered 0.5 hrs before ScPTZ stimulation relative to control; assay type: functional; set-up: scale not given: the % may be the effect or the level left
Mus musculus [10] = experiment: Anticonvulsant activity in Kunming mouse assessed as reduction in ScPTZ-induced tonic seizure rate at 100 mg/kg, ip administered 0.5 hrs before ScPTZ stimulation relative to control; assay type: functional; set-up: scale not given: the % may be the effect or the level left
Mus musculus [11] = experiment: Anticonvulsant activity in Kunming mouse assessed as reduction in Sc3-MP-induced seizure at 300 mg/kg, ip administered 0.25 and 1 hrs before Sc3-MP stimulation relative to control; assay type: functional, organism-based
Mus musculus [12] = experiment: Anticonvulsant activity in Kunming mouse assessed as reduction in Sc3-MP-induced seizure at 300 mg/kg, ip administered 0.5 hrs before Sc3-MP stimulation relative to control; assay type: functional; set-up: scale not given: the % may be the effect or the level left
Mus musculus [13] = experiment: Anticonvulsant activity in ip dosed Kunming mouse assessed as MES-induced hind limb extension administered 0.5 hrs before MES stimulation; assay type: functional
Mus musculus [14] = experiment: Anticonvulsant activity in ip dosed Kunming mouse assessed as reduction in ScPTZ-induced seizure administered 0.5 hrs before ScPTZ stimulation; assay type: functional
Mus musculus [15] = experiment: Anticonvulsant activity in Kunming mouse assessed as reduction in Sc3-MP-induced seizure ip dosed measured at 0.5 hrs before Sc3-MP stimulation; assay type: functional
[16] = Neurotoxicity against ip dosed Kunming mouse assessed as time remained in rod measured at 0.5 hrs by rotarod test; assay type: toxicity, organism-based; conditions: in vivo
[17] = Protective index, ratio of TD50 for neurotoxicity against ip dosed Kunming mouse assessed as time remained in rod measured at 0.5 hrs by rotarod test to ED50 for anticonvulsant activity in ip dosed Kunming mouse assessed as MES-induced hind limb extension administered 0.5 hrs; assay type: toxicity, organism-based; conditions: in vivo, read-out: PI
[18] = Protective index, ratio of TD50 for neurotoxicity against ip dosed Kunming mouse assessed as time remained in rod measured at 0.5 hrs by rotarod test to ED50 for anticonvulsant activity in ip dosed Kunming mouse assessed as reduction in Sc3-MP-induced seizure administered 0.5 hrs before Sc3-MP stimulation; assay type: toxicity, organism-based; conditions: in vivo, read-out: PI
Homo sapiens [19] = organism: Homo sapiens; experiment: Inhibition of human LDH1 at 0.5 mM using sodium pyruvate as substrate by UV-VIS spectrophotometry method relative to control
Homo sapiens [20] = organism: Homo sapiens; experiment: Inhibition of human LDH5 at 0.5 mM using sodium pyruvate as substrate by UV-VIS spectrophotometry method relative to control
Homo sapiens [21] = organism: Homo sapiens; experiment: Inhibition of human LDH1 at 0.5 mM using sodium pyruvate as substrate measured for 60 sec for every 5 mins by LC/MS-MS analysis
Homo sapiens [22] = organism: Homo sapiens; experiment: Inhibition of human LDH5 at 0.5 mM using sodium pyruvate as substrate measured for 60 sec for every 5 mins by LC/MS-MS analysis
[23] = Clearance in Sprague-Dawley rat at 20 mg/kg, iv measured upto 480 mins by LC-MS/MS analysis; assay type: ADME, organism-based; conditions: in vivo
[24] = Volume of distribution at steady state in Sprague-Dawley rat at 20 mg/kg, iv measured upto 480 mins by LC-MS/MS analysis; assay type: ADME, organism-based; conditions: in vivo, read-out: Vdss
[25] = Cmax in Sprague-Dawley rat at 20 mg/kg, iv measured upto 480 mins by LC-MS/MS analysis; assay type: ADME, organism-based; set-up: dose 20 mg/kg, route intravenous; conditions: in vivo
[26] = AUC in Sprague-Dawley rat at 20 mg/kg, iv measured upto 480 mins by LC-MS/MS analysis; assay type: ADME, organism-based; set-up: time < 8 hr, dose 20 mg/kg, route intravenous; conditions: in vivo
[27] = Half life in Sprague-Dawley rat at 20 mg/kg, po measured upto 480 mins by LC-MS/MS analysis; assay type: ADME, organism-based; conditions: in vivo
[28] = Tmax in Sprague-Dawley rat at 20 mg/kg, po measured upto 480 mins by LC-MS/MS analysis; assay type: ADME, organism-based; conditions: in vivo
[29] = Clearance in Sprague-Dawley rat at 20 mg/kg, po measured upto 480 mins by LC-MS/MS analysis; assay type: ADME, organism-based; conditions: in vivo
[30] = Volume of distribution at steady state in Sprague-Dawley rat at 20 mg/kg, po measured upto 480 mins by LC-MS/MS analysis; assay type: ADME, organism-based; conditions: in vivo, 8 h
[31] = AUC in Sprague-Dawley rat at 20 mg/kg, po measured upto 480 mins by LC-MS/MS analysis; assay type: ADME, organism-based; set-up: time < 8 hr, dose 20 mg/kg, route oral; conditions: in vivo
[32] = Half life in Sprague-Dawley rat at 50 mg/kg, po measured upto 480 mins by LC-MS/MS analysis; assay type: ADME, organism-based; conditions: in vivo
[33] = Clearance in Sprague-Dawley rat at 50 mg/kg, po measured upto 480 mins by LC-MS/MS analysis; assay type: ADME, organism-based; conditions: in vivo
[34] = AUC in Sprague-Dawley rat at 50 mg/kg, po measured upto 480 mins by LC-MS/MS analysis; assay type: ADME, organism-based; set-up: time < 8 hr, dose 50 mg/kg, route oral; conditions: in vivo
[35] = Oral bioavailability in Sprague-Dawley rat at 50 mg/kg measured upto 480 mins by LC-MS/MS analysis; assay type: ADME, organism-based; conditions: in vivo
[36] = Half life in Sprague-Dawley rat at 100 mg/kg, po measured upto 480 mins by LC-MS/MS analysis; assay type: ADME, organism-based; conditions: in vivo
[37] = Tmax in Sprague-Dawley rat at 100 mg/kg, po measured upto 480 mins by LC-MS/MS analysis; assay type: ADME, organism-based; conditions: in vivo
[38] = Clearance in Sprague-Dawley rat at 100 mg/kg, po measured upto 480 mins by LC-MS/MS analysis; assay type: ADME, organism-based; conditions: in vivo
[39] = Volume of distribution at steady state in Sprague-Dawley rat at 100 mg/kg, po measured upto 480 mins by LC-MS/MS analysis; assay type: ADME, organism-based; conditions: in vivo, 8 h
[40] = AUC in Sprague-Dawley rat at 100 mg/kg, po measured upto 480 mins by LC-MS/MS analysis; assay type: ADME, organism-based; set-up: dose 100 mg/kg, time < 8 hr, route oral; conditions: in vivo
[41] = Oral bioavailability in Sprague-Dawley rat at 100 mg/kg measured upto 480 mins by LC-MS/MS analysis; assay type: ADME, organism-based; conditions: in vivo

COc1cc(OC)c(OC)cc1/C=C/COC(=O)/C=C/c1c(OC)cc(OC)c(OC)c1OC
Activity (Mus musculus [1]): 100%
Activity (Mus musculus [2]): 50%
Activity (Mus musculus [3]): Active
Activity [4]: Non-Toxic
Activity (Mus musculus [5]): 50%
Activity (Mus musculus [6]): 25%
Activity (Mus musculus [7]): 75%
Activity (Mus musculus [8]): 100%
Activity (Mus musculus [9]): 25%
Activity (Mus musculus [10]): 25%
Activity (Mus musculus [11]): Active
Activity (Mus musculus [12]): 50%
ED50 (Mus musculus [13]): 71.4 µmol/kg and 33.9 mg/kg
ED50 (Mus musculus [14]): 154 mg/kg and 326 µmol/kg
ED50 (Mus musculus [15]): 203 mg/kg and 428 µmol/kg
TD50 at 0.5 h [16]: 1970 µmol/kg and 936 mg/kg
selectivity ratio at 0.5 h [17]: 27.7
selectivity ratio at 0.5 h [18]: 4.6
inhibition (Homo sapiens [19]): 21%
inhibition (Homo sapiens [20]): 27%
inhibition (Homo sapiens [21]): 21%
inhibition (Homo sapiens [22]): 27%
clearance [23]: 8.4 L/h/kg
Vd [24]: 2.14 L/kg
Cmax [25]: 6.48 µg/mL
AUC at 8 h [26]: 3 µg·h/mL
half-life [27]: 57.9 min
Tmax [28]: 37.1 min
CL/F [29]: 22.8 L/h/kg
Vdss [30]: 9.86 L/kg
AUC at 8 h [31]: 1.3 µg·h/mL
half-life [32]: 59.2 min
CL/F [33]: 27 L/h/kg
AUC at 8 h [34]: 2.61 µg·h/mL
bioavailability [35]: 34.8%
half-life [36]: 58.5 min
Tmax [37]: 38.8 min
CL/F [38]: 31.2 L/h/kg
Vdss [39]: 11.26 L/kg
AUC at 8 h [40]: 5.48 µg·h/mL
bioavailability [41]: 36.5%

COc1cc(OC)c(OC)cc1/C=C/COC(=O)/C=C/c1cc(OC)c(OC)c(OC)c1OC
Activity (Mus musculus [1]): 100%
Activity (Mus musculus [2]): 50%
Activity (Mus musculus [3]): Active
Activity [4]: Non-Toxic
Activity (Mus musculus [5]): 50%
Activity (Mus musculus [6]): 25%
Activity (Mus musculus [7]): 75%
Activity (Mus musculus [8]): 100%
Activity (Mus musculus [9]): 0%
Activity (Mus musculus [10]): 75%
Activity (Mus musculus [11]): Active
Activity (Mus musculus [12]): 50%
ED50 (Mus musculus [13]): 65.1 µmol/kg and 30.9 mg/kg
ED50 (Mus musculus [14]): 155 mg/kg and 327 µmol/kg
ED50 (Mus musculus [15]): > 200 mg/kg and > 422 µmol/kg
TD50 at 0.5 h [16]: > 2110 µmol/kg and > 1000 mg/kg
selectivity ratio at 0.5 h [17]: > 32.4
selectivity ratio at 0.5 h [18]: > 5.3
inhibition (Homo sapiens [19]): 18%
inhibition (Homo sapiens [20]): 15%
inhibition (Homo sapiens [21]): 18%
inhibition (Homo sapiens [22]): 15%
clearance [23]: 9.6 L/h/kg
Vd [24]: 1.98 L/kg
Cmax [25]: 6.22 µg/mL
AUC at 8 h [26]: 2.94 µg·h/mL
half-life [27]: 55.8 min
Tmax [28]: 35.2 min
CL/F [29]: 23.4 L/h/kg
Vdss [30]: 8.94 L/kg
AUC at 8 h [31]: 1.21 µg·h/mL
half-life [32]: 58.5 min
CL/F [33]: 28.8 L/h/kg
AUC at 8 h [34]: 2.31 µg·h/mL
bioavailability [35]: 31.4%
half-life [36]: 57 min
Tmax [37]: 36.2 min
CL/F [38]: 33.6 L/h/kg
Vdss [39]: 9.98 L/kg
AUC at 8 h [40]: 5.11 µg·h/mL
bioavailability [41]: 34.8%

Reference: ChEMBL document CHEMBL4311969, “Polygala tenuifolia-Acori tatarinowii herbal pair as an inspiration for substituted cinnamic α-asaronol esters: Design, synthesis, anticonvulsant activity, and inhibition of lactate dehydrogenase study” (Eur J Med Chem, 2019)
